Experimental data from patent US20070254837A1, “Treatment for Necrotizing Enterocolitis” (UNIVERSITY TECHNOLOGIES INTERNATIONAL INC., priority 2003, published 2007).
“Also recorded” adds a separate entry of the source.

Assays:
[1] = tested on: neonatal rat model of necrotizing enterocolitis; test: Neonatal rat model of necrotizing enterocolitis: clinical (macroscopic) assessment of small intestine on autopsy; type: in vivo; conditions: for discoloration (visual assessment of luminal blood) / stenosis: FIG. 3; for clinical scoring on autopsy (overall clinical appearance, pathology/damage scores): FIG. 2
Procedure: (§1) These studies utilized a well-validated neonatal rat model of necrotizing enterocolitis (14). Briefly, neonatal Sprague-Dawley rats (Charles River Laboratories Inc., Wilmington, Mass.) were collected from their mothers immediately after birth, prior to suckling maternal milk. Animals were weighed and placed in infant incubators to control body temperature. Subsequently, rats were hand fed via the orogastric route 0.1 ml of rat milk substitute (RMS) consisting of prepared infant formula (Esbilac formula, Pet-Ag, New Hampshire, Ill.) plus or minus the therapeutic supplement every three hours. EGF (Austral Biologics, San Ramon, Calif.) was produced by genetically engineered yeast and purified by sequential chromatography and reverse phase high pressure liquid chromatography (HPLC) and determined to be >97% pure by N-terminal amino acid sequencing, amino acid composition, HPLC analysis and SDS gel electrophoresis. Arginine (L-arginine hydrochloride, crystalline, ICN Biomedicals Inc, Aurora, Ohio) was produced by a proprietary synthetic process. EGF (100 ng/ml) and L-arginine (1.35-2.7 mg/ml) were admininstered based on daily feed intake to achieve a dose of 1.5 mmol/kg/day of L-arginine (in standardized units these doses work out to ˜20 ug EGF/kg/day and ˜316 mg L-arginine/kg/day, for a ratio of about 1:472 500 mole/mole). The EGF and L-arginine were gently vortexed and thoroughly mixed into the Esbilac infant formula. After 48 hrs of feeding, volumes were advanced slowly to 0.3 ml as tolerated. To induce clinical disease rats were stressed twice daily with asphyxia by breathing 100% nitrogen gas for 60 sec followed by cold stress at 4° C. for 10 min starting one hour after birth.
Six separate experimental groups were studied: unstressed rats artificially fed with EGF-free rat milk substitute (RMS) (Control, n=10); stressed rats that were dam-fed (Control (s), n=7); stressed rats artificially fed EGF-free RMS (NEC, n=10); stressed rats artificially fed RMS supplemented with 100 ng/ml recombinant human EGF (EGF-NEC, n=6); stressed rats artificially fed RMS supplemented with 1.5 mmol L-arginine/kg/day (ARG-NEC, n=6); and stressed rats artificially fed RMS supplemented with 100 ng/ml recombinant human EGF+1.5 mmol L-arginine/kg/day (EGF/ARG-NEC, n=8). Animals that developed abdominal distension, respiratory distress or lethargy during the 96-hour course of the experiment were terminated. After 96 hours all surviving animals were killed by decapitation and the small intestine removed for further analysis.
(§2) Body weights and tail lengths were recorded daily, and twice daily urination and defecation was induced by gentle stimulation of the anogenital region and stool collected for future analysis. The small intestine was visually assessed for clinical signs of NEC such as intestinal hemorrhage and discoloration, and ileal distension and stenosis. The small intestine was then divided into two halves and 2-3 cm of tissue from the distal segment (ileum) fixed, embedded in paraffin, and counterstained with hematoxylin and eosin for histological evaluation of NEC (14). Histology was evaluated in a blinded manner and graded as follows: normal (0) showing no damage; mild (+1) showing slight submucosal and/or lamina propria separation (+2); moderate (+2) displaying moderate separation of the submucosa and/or lamina propria, and/or edema in the submucosal and muscular layers; severe (+3) showing severe separation of submucosa and/or lamina propria, and/or severe edema in the submucosal and muscular layers, and regional villus sloughing; necrosis (+4) displaying loss of villi and necrosis (14). The length of the remaining ileum was measured and the tissue homogenized in 2.5 mM ethylenediaminetetraacetic acid (EDTA), snap frozen in liquid nitrogen, and stored at […] for later analysis of lactase activity (21) and ileal protein (5) and DNA (3 1) content.
(§3) Data are expressed as means ±SE. […]

[2] = tested on: lactase; test: Neonatal rat model of necrotizing enterocolitis: total lactase activity in distal ileal tissue; type: in vivo; conditions: compared to untreated NEC rats, FIG. 6
Procedure: These studies utilized a well-validated neonatal rat model of necrotizing enterocolitis (14). Briefly, neonatal Sprague-Dawley rats (Charles River Laboratories Inc., Wilmington, Mass.) were collected from their mothers immediately after birth, prior to suckling maternal milk. Animals were weighed and placed in infant incubators to control body temperature. Subsequently, rats were hand fed via the orogastric route 0.1 ml of rat milk substitute (RMS) consisting of prepared infant formula (Esbilac formula, Pet-Ag, New Hampshire, Ill.) plus or minus the therapeutic supplement every three hours. EGF (Austral Biologics, San Ramon, Calif.) was produced by genetically engineered yeast and purified by sequential chromatography and reverse phase high pressure liquid chromatography (HPLC) and determined to be >97% pure by N-terminal amino acid sequencing, amino acid composition, HPLC analysis and SDS gel electrophoresis. […]
Body weights and tail lengths were recorded daily, and twice daily urination and defecation was induced by gentle stimulation of the anogenital region and stool collected for future analysis. The small intestine was visually assessed for clinical signs of NEC such as intestinal hemorrhage and discoloration, and ileal distension and stenosis. […]
as §3

[3] = tested on: necrotizing enterocolitis; conditions: 152 infants, birthweight ≦1250 g, gestational age ≦32 weeks; dietary L-arginine supplementation; reduced from 27%; cited from earlier work
[4] = tested on: neonatal piglet model of NEC; conditions: infusion; cited from earlier work
[5] = tested on: neonatal rat model of necrotizing enterocolitis; test: Neonatal rat model of necrotizing enterocolitis: histological evaluation of distal ileal tissue; type: in vivo; conditions: for histological damage scores: distal ileal tissue, compared to NEC animals, FIG. 5; for appearance of ileal tissue sections (photomicrographs): distal ileum, hematoxylin and eosin, FIG. 4
Procedure: as §1, with “To induce clinical disease rats were stressed twice daily with asphyxia by breathing 100% nitrogen gas for 60 sec followed by cold stress at 4° C. for 10 min starting one hour after birth.” left out
as §2, with “The small intestine was then divided into two halves and 2-3 cm of tissue from the distal segment (ileum) fixed, embedded in paraffin, and counterstained with hematoxylin and eosin for histological evaluation of NEC (14).” left out
as §3

[6] = tested on: necrotizing enterocolitis; conditions: cited from earlier work
[7] = stressed neonatal rats, RMS with EGF 100 ng/ml and/or L-arginine 1.5 mmol/kg/day, 96 h, compared to untreated (NEC) group

Row | Compound | discoloration (visual assessment of luminal blood) ([1]; compared to controls) | stenosis ([1]; compared to controls) | discoloration (visual assessment of luminal blood) ([1]; compared to untreated group) | discoloration (visual assessment of luminal blood) ([1]; compared to untreated group, listed as L-arginine) | clinical scoring on autopsy (overall clinical appearance, pathology/damage scores) [1, 7] | total lactase activity [2] | incidence of NEC [3] | intestinal injury [4] | histological damage scores [5] | appearance of ileal tissue sections (photomicrographs) [5] | clinical scoring on autopsy (overall clinical appearance, pathology/damage scores) ([1]; same treatment, compared to control animals) | protective effect ([6]; EGF at 500 ng/ml) | clinical benefit ([6]; EGF at physiological concentration of 100 ng/ml)
1 | N=C(N)NCCCC(N)C(=O)O (stereo not shown) [Arg, 2-amino-5-guanidinovaleric acid] | significantly elevated | significant stenosis | significantly less discoloration than observed in the untreated group | decreased the appearance of blood in the lumen | did not differ | did not alter the deficit in lactase activity | 7% | markedly reduced intestinal injury | did not differ | Significant damage | – | – | –
2 | EGF: 53-amino acid protein, human EGF sequence SEQ ID NO: 1, produced by genetically engineered yeast (Austral Biologics) | significantly elevated | significant stenosis | – | – | significantly less than that observed in the untreated (NEC) group; also recorded: some protection against physical damage to the intestine | did not alter the deficit in lactase activity | – | – | did not differ | Significant damage | still significantly increased over control animals | protective effect | no significant clinical benefit
